Measurements published in patent US11458189B2, “Cytoprotective drugs” (BALMES TRANSPLANTATION, priority 2017, dated 2022).
Starred links: 1 amine or outer side, 2 acyl side, 3 side chain; linkers in the order of their positions; H or OH if unused. Positions of bridges follow the written chain, without caps; N, C: chain ends. Non-standard residues stand in square brackets, D forms with d. Residues, ends and D or L forms follow the SMILES beside them. ξ: configuration not given here. *: point of attachment. hTyr(3S-OH,4S-OH,3'-OSO3H) = N[C@H](C(=O)O)[C@H](O)[C@@H](O)c1ccc(O)c(OS(=O)(=O)O)c1; pTerphenylCO(4''-OnC5H11) = CCCCCOc1ccc(-c2ccc(-c3ccc(C(=O)*)cc3)cc2)cc1; Orn(4R-OH,5R-OH) = O=C([C@H](C[C@@H](O)[C@@H](O)N[*:3])N[*:1])[*:2]; hTyr(3S-OH,4S-OH) = N[C@H](C(=O)O)[C@H](O)[C@@H](O)c1ccc(O)cc1; Pro(3S-OH,4S-Me) = C[C@H]1CN[C@H](C(=O)O)[C@H]1O; X1 = CCCCCOc1ccc(-c2cc(-c3ccc(C(=O)*)cc3)no2)cc1; Gln(3R-OH) = NC(=O)C[C@@H](O)[C@H](N)C(=O)O; ξPro(4R-OH) = O=C(O)C1C[C@@H](O)CN1; Hyp = O=C(O)[C@@H]1C[C@@H](O)CN1

Tested on: Sprague Dawley rats
Test: Survival in acute renal failure model (unilateral renal ischemia-reperfusion with contralateral nephrectomy)
Assay type: in vivo, rat
Details: up to 7 days after reperfusion, control group 29%
Procedure: The protocol is similar to the one described by Narayan P et al, Am J Physiol Renal Physiol, 311(2):F352-61, 2016 and was approved by an ethics committee. In summary, general anesthesia is induced in male Sprague Dawley rats (250-300 g) using sodium pentobarbital (60 mg/kg, ip) instead of ketamine/xylazine in the protocol described by Narayan P et al, Am J Physiol Renal Physiol, 311 (2): F352-61, 2016. A skin incision is made on the dorsal surface and the left kidney is exposed by incisions on the flank. The left renal pedicle is then isolated and clamped for 60 minutes using atraumatic vascular clamps. The kidneys are replaced in the abdominal cavity to maintain temperature and the incision is covered with gauze soaked in 0.9% saline. After the ischemia time (60 minutes), the clamps are released to begin reperfusion. Reperfusion is monitored (kidney color change) for 1 to 2 minutes and physiological saline (1 mL) is administered to prevent dehydration. Next, a right kidney nephrectomy is performed and the incisions are closed with sutures. The animals are kept at approximately 37° C. using a thermoregulated system during the operation. Buprenorphine (0.2 mg/kg sc) is administered before the animals are returned to their cages and once a day until 4 days after reperfusion. […]
The compounds Micafungin (0.25 mg/kg), Anidulafungin (0.35 mg/kg) or the combination of the compounds Micafungin (0.25 mg/kg) and Allopurinol (3 mg/kg) are administered solubilized in physiological saline as a single intravenous injection into the tail vein 60 (±15) minutes before the onset of ischemia. The volume of administration of the compounds is determined on the basis of the body weight (2 mL/kg) of each animal. […]
For each experiment the curve of the number of surviving animals versus the number of days post-ischemia-reperfusion (Kaplan-Meier curve) is shown. The x-axis is graduated from the first day =0 to the seventh day =6 The y-axis is graduated from 0% to 100% of the initial population of the analyzed group. […]

SMILES | Surviving animals at end of Kaplan-Meier curve (% of initial population of the group) (Micafungin 0.25 mg/kg single iv injection 60 min before ischemia) [%] | Surviving animals at end of Kaplan-Meier curve (% of initial population of the group) (Anidulafungin 0.35 mg/kg single iv injection 60 min before ischemia) [%]
CCCCCOc1ccc(-c2cc(-c3ccc(C(=O)N[C@H]4C[C@@H](O)[C@@H](O)NC(=O)[C@@H]5[C@@H](O)[C@@H](C)CN5C(=O)[C@H]([C@H](O)CC(N)=O)NC(=O)[C@H]([C@H](O)[C@@H](O)c5ccc(O)c(OS(=O)(=O)O)c5)NC(=O)[C@@H]5C[C@@H](O)CN5C(=O)[C@H]([C@@H](C)O)NC4=O)cc3)no2)cc1 [Micafungin, {5-[(1S,2S)-2-[(3S,6S,9S,11R,15S,18S,20R,21R,24S,25S,26S)-3-[(1R)-2-carbamoyl-1-hydroxyethyl]-11,20,21,25-tetrahydroxy-15-[(1R)-1-hydroxyethyl]-26-methyl-2,5,8,14,17,23-hexaoxo-18-[(4-{5-[4-(pentyloxy)phenyl]-1,2-oxazol-3-yl}benzene)amido]-1,4,7,13,16,22-hexaazatricyclo[22.3.0.0]heptacosan-6-yl]-1,2-dihydroxyethyl]-2-hydroxyphenyl}oxidanesulfonic acid] (X1-[Orn(4R-OH,5R-OH)]T[Hyp][hTyr(3S-OH,4S-OH,3'-OSO3H)][Gln(3R-OH)][Pro(3S-OH,4S-Me)]; lactam 1-C) | 67 | 
CCCCCOc1ccc(-c2ccc(-c3ccc(C(=O)N[C@H]4C[C@@H](O)[C@@H](O)NC(=O)[C@@H]5[C@@H](O)[C@@H](C)CN5C(=O)[C@H]([C@@H](C)O)NC(=O)[C@H]([C@H](O)[C@@H](O)c5ccc(O)cc5)NC(=O)C5C[C@@H](O)CN5C(=O)[C@H]([C@@H](C)O)NC4=O)cc3)cc2)cc1 (stereo partly drawn) [Anidulafungin] ({pTerphenylCO(4''-OnC5H11)}-[Orn(4R-OH,5R-OH)]T[ξPro(4R-OH)][hTyr(3S-OH,4S-OH)]T[Pro(3S-OH,4S-Me)]; lactam 1-C) |  | 75
